Experimental findings from PubChem BioAssay (NCI) are described below.

Test systems include T-47D breast; UO-31 renal; NCI-H460 lung; CAKI-1 renal; OVCAR-3 ovarian; 786-0 renal; SNB-75 CNS; KM12 colon; NCI-H522 lung; NCI-H226 lung.
What all share (experiment): NCI-60 cell line screen, 48 h

The structures appear in SMILES notation.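 Five concentrations, 48 hours, 96-well plates. GI50 = concentration required for 50% inhibition of growth. TGI: concentration producing complete growth inhibition.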

Regarding `CC1=C(C(=O)Nc2ccc(Cl)c(Cl)c2)C(c2cccc(Cl)c2)NC(=S)N1` (stereo not drawn), the GI50 is 31.5 µM in the assay on T-47D breast; 11.1 µM with UO-31 renal; 24.3 µM with NCI-H460 lung; 14.2 µM in the assay with CAKI-1 renal; 10.5 µM in the assay on OVCAR-3 ovarian; 8.79 µM with 786-0 renal. Besides, the GI50 in the assay on SNB-75 CNS was 30.4 µM; in the assay on KM12 colon, 11.6 µM. For the same molecule, the TGI in the assay with T-47D breast is more than 50 µM; in the assay on UO-31 renal, 24.9 µM; with NCI-H460 lung, more than 50 µM; with CAKI-1 renal it was more than 50 µM; in the assay on OVCAR-3 ovarian, 37.5 µM; in the assay with 786-0 renal, 18.3 µM. Besides, the TGI with SNB-75 CNS was more than 50 µM; in the assay on KM12 colon it was 37.6 µM.
As for `N#CC1=C(N)OC2=C(CCOc3c2ccc2ccccc32)C1c1ccc(Br)cc1` (stereo not drawn), the GI50 is more than 100 µM in the assay on T-47D breast; more than 100 µM in the assay with UO-31 renal; 28.4 µM with NCI-H460 lung; 15.1 µM with CAKI-1 renal; more than 100 µM in the assay on NCI-H522 lung; 15.1 µM with OVCAR-3 ovarian. Further, the values for the GI50 in the assay on 786-0 renal and in the assay with KM12 colon were 44.9 µM and 14.6 µM, respectively. Besides, the TGI with T-47D breast was more than 100 µM; in the assay on UO-31 renal, more than 100 µM; in the assay on NCI-H460 lung, more than 100 µM; with CAKI-1 renal, 80.6 µM; with NCI-H522 lung, more than 100 µM; in the assay with OVCAR-3 ovarian, 39.4 µM. In addition, the TGI was more than 100 µM in the assay on 786-0 renal and 34.3 µM in the assay with KM12 colon.
With `COc1ccc2nc3ccccc3c(NCCCCN(CCCl)CCCl)c2c1`, the TGI in the assay with T-47D breast was determined as 13.8 µM; in the assay on NCI-H226 lung, 9.65 µM; in the assay with UO-31 renal, 2.29 µM; in the assay with NCI-H460 lung it was 0.69 µM; in the assay with 786-0 renal, 1.64 µM; in the assay on SNB-75 CNS, 2.04 µM. Moreover, the TGI with KM12 colon is 3.48 µM.
As to `O=C1C=CC(=O)c2c1nc(CBr)[nH]c2=O`, the TGI in the assay on T-47D breast, in the assay on UO-31 renal, in the assay with CAKI-1 renal, in the assay with NCI-H522 lung, in the assay with OVCAR-3 ovarian and with 786-0 renal was more than 100 µM each time. Also, the TGI in the assay on SNB-75 CNS and with KM12 colon was more than 100 µM each time.
Consider `CCCCOC(=O)NC(=O)c1cn(CCCOC(=O)CCCCCCCCC(=O)OCCCn2cc(C(=O)NC(=O)OCCCC)c(=O)n(C)c2=O)c(=O)n(C)c1=O`, for which the TGI in the assay with NCI-H226 lung, in the assay with UO-31 renal, in the assay with NCI-H460 lung, with CAKI-1 renal, in the assay with NCI-H522 lung and with OVCAR-3 ovarian was more than 100 µM in each case. In addition, the TGI in the assay on 786-0 renal, with SNB-75 CNS and with KM12 colon was more than 100 µM each time.
Consider `O=C(C(=CN1CCN(C(=O)c2ccco2)C1=S)C(=O)c1ccccc1)c1ccccc1`, for which the GI50 in the assay on T-47D breast is more than 50 µM; in the assay with UO-31 renal, 8.71 µM; with NCI-H460 lung, 2.35 µM; with CAKI-1 renal it was 6.98 µM; with OVCAR-3 ovarian, 7.32 µM; in the assay with 786-0 renal it was 8.23 µM. For the same molecule, the GI50 was 27.4 µM in the assay on SNB-75 CNS and 2.31 µM with KM12 colon. For the same molecule, the TGI in the assay with T-47D breast is more than 50 µM; in the assay on UO-31 renal, 18.7 µM; with NCI-H460 lung, 11.6 µM; with CAKI-1 renal, 17.2 µM; in the assay with OVCAR-3 ovarian it was 23 µM; with 786-0 renal, 19.2 µM. Further, the TGI in the assay on SNB-75 CNS was more than 50 µM; in the assay with KM12 colon, 11.5 µM.
As to `CSc1nnc(C(C#N)C#N)nn1`, the TGI in the assay with NCI-H226 lung, in the assay on UO-31 renal, in the assay with NCI-H460 lung, with CAKI-1 renal, in the assay on NCI-H522 lung and in the assay on OVCAR-3 ovarian was more than 100 µM throughout. For the same molecule, the TGI with 786-0 renal, with SNB-75 CNS and in the assay with KM12 colon was more than 100 µM each time.
Consider `O=C1/C(=C/c2ccc(C(F)(F)F)cc2)COc2ccc(O)c(O)c21`, for which the GI50 in the assay on NCI-H226 lung was 1.59 µM; in the assay with UO-31 renal, 0.633 µM; with NCI-H460 lung it was 1.85 µM; in the assay with CAKI-1 renal, 1.11 µM; in the assay on NCI-H522 lung, 0.216 µM; in the assay with OVCAR-3 ovarian it was 0.514 µM. The GI50 is 1.32 µM in the assay with 786-0 renal, 1.39 µM in the assay on SNB-75 CNS and 1.7 µM in the assay with KM12 colon. For the same molecule, the TGI in the assay with NCI-H226 lung stood at 3.09 µM; in the assay with UO-31 renal it was 1.95 µM; with NCI-H460 lung, 3.9 µM; with CAKI-1 renal, 2.38 µM; in the assay with NCI-H522 lung it was 0.515 µM; with OVCAR-3 ovarian, 1.84 µM. For the same molecule, the values for the TGI in the assay on 786-0 renal, in the assay on SNB-75 CNS and in the assay with KM12 colon were 2.85 µM, 3.02 µM and 3.84 µM, respectively.
Turning to `CCN(CC)c1c(C)nnn1C1OC(COC(C)=O)C(OC(C)=O)C(OC(C)=O)C1OC(C)=O` (stereo not drawn), the TGI with NCI-H226 lung, in the assay on UO-31 renal, in the assay on NCI-H460 lung, in the assay on CAKI-1 renal, in the assay on NCI-H522 lung and in the assay on OVCAR-3 ovarian was more than 100 µM each time. Besides, the TGI in the assay on 786-0 renal, in the assay with SNB-75 CNS and in the assay on KM12 colon was more than 100 µM each time.
As for `COc1cc(O)c(C(=O)/C=C/c2ccc(OC)c(OCc3ccccc3)c2)c(OC)c1`, the TGI in the assay with NCI-H226 lung, with UO-31 renal, in the assay on NCI-H460 lung, in the assay on CAKI-1 renal, with NCI-H522 lung and in the assay on OVCAR-3 ovarian was more than 100 µM throughout. For the same molecule, the TGI in the assay with 786-0 renal, in the assay on SNB-75 CNS and in the assay with KM12 colon was more than 100 µM throughout.
For the molecule `CCOCCOCCOCCOCCOCCOCCOCCOCCOCCO` (tested in a mixture with another compound), the GI50 in the assay on T-47D breast is 1.12 µM; in the assay with NCI-H226 lung it was 1.22 µM; in the assay with UO-31 renal, 1.58 µM; in the assay with NCI-H460 lung, 1.2 µM; with CAKI-1 renal, 1.42 µM; in the assay with OVCAR-3 ovarian, 0.476 µM. For the same molecule, the results for the GI50 with 786-0 renal, in the assay with SNB-75 CNS and with KM12 colon were 2.83 µM, 0.728 µM and 1.2 µM, respectively. The TGI in the assay with T-47D breast was determined as 7.16 µM; in the assay with NCI-H226 lung, 12.5 µM; with UO-31 renal it was 18.7 µM; in the assay with NCI-H460 lung, 6.82 µM; in the assay with CAKI-1 renal, 18.9 µM; in the assay with OVCAR-3 ovarian, 4.63 µM. In addition, the TGI amounted to 14.4 µM with 786-0 renal, 5.34 µM with SNB-75 CNS and 4.67 µM in the assay with KM12 colon.
Consider `CC(=O)Nc1ccc(/C=c2\sc3nnc(-c4cccnc4)n3c2=O)cc1`, for which the TGI is more than 100 µM in the assay with NCI-H226 lung; 24.7 µM in the assay on UO-31 renal; 30.9 µM with NCI-H460 lung; 35.3 µM in the assay with CAKI-1 renal; 33.2 µM with NCI-H522 lung; 34 µM in the assay with OVCAR-3 ovarian. The TGI stood at 31.4 µM in the assay with 786-0 renal, 57.7 µM with SNB-75 CNS and 31 µM in the assay on KM12 colon.
In the case of `Cc1ccc(S(=O)(=O)C2CC2(Cl)Cl)cc1` (stereo not drawn), the TGI with NCI-H226 lung was more than 100 µM; in the assay on UO-31 renal it was more than 100 µM; with NCI-H460 lung, more than 100 µM; with CAKI-1 renal, 86.1 µM; in the assay with NCI-H522 lung it was 26.7 µM; in the assay on OVCAR-3 ovarian, 52.6 µM. The TGI was 43.3 µM with 786-0 renal, more than 100 µM in the assay with SNB-75 CNS and more than 100 µM in the assay on KM12 colon.
For `S=C(SSC(=S)N1CCCCC1)N1CCCCC1`, the GI50 in the assay with NCI-H226 lung was 34.6 µM; with UO-31 renal it was 19.2 µM; in the assay with NCI-H460 lung, 10.9 µM; in the assay on CAKI-1 renal, 18 µM; in the assay with NCI-H522 lung, 12.2 µM; in the assay on OVCAR-3 ovarian, 11.3 µM. In addition, the GI50 in the assay with 786-0 renal was 14.5 µM; with SNB-75 CNS, 16.7 µM; in the assay on KM12 colon, 13.9 µM. In addition, the TGI was more than 100 µM with NCI-H226 lung; more than 100 µM in the assay with UO-31 renal; 41.5 µM in the assay with NCI-H460 lung; more than 100 µM in the assay on CAKI-1 renal; 30.1 µM in the assay on NCI-H522 lung; 24.2 µM with OVCAR-3 ovarian. The TGI in the assay with 786-0 renal came to 28.9 µM; in the assay on SNB-75 CNS, 57.6 µM; in the assay with KM12 colon, 29 µM.
As to `CC(=O)[CH-]C(=O)c1ccccc1.CC(=O)[CH-]C(=O)c1ccccc1.CC(=O)[CH-]C(=O)c1ccccc1.[Ga+3]`, the GI50 was 16.8 µM in the assay with NCI-H226 lung; 26.7 µM in the assay on UO-31 renal; 11.8 µM in the assay with NCI-H460 lung; 30.8 µM in the assay with CAKI-1 renal; 12.1 µM in the assay with NCI-H522 lung; 20.4 µM in the assay on OVCAR-3 ovarian. The results for the GI50 in the assay with 786-0 renal, in the assay on SNB-75 CNS and with KM12 colon were 18.2 µM, 20.3 µM and 16.8 µM, respectively. The TGI with NCI-H226 lung stood at 43.5 µM; in the assay on UO-31 renal it was 76.2 µM; in the assay on NCI-H460 lung, 28.7 µM; with CAKI-1 renal, 80 µM; in the assay with NCI-H522 lung, 25 µM; with OVCAR-3 ovarian, 48.9 µM. The TGI in the assay on 786-0 renal stood at 37.1 µM; in the assay on SNB-75 CNS, 69.3 µM; in the assay with KM12 colon it was 31.1 µM.
With `CN(C)N=Nc1ccc(S(N)(=O)=O)cc1`, the TGI in the assay on NCI-H226 lung, in the assay on UO-31 renal, in the assay with NCI-H460 lung, with CAKI-1 renal, with NCI-H522 lung and with OVCAR-3 ovarian was more than 100 µM throughout. The TGI with 786-0 renal, in the assay on SNB-75 CNS and with KM12 colon was more than 100 µM in each case.
